This is an account of results in ChEMBL document CHEMBL4837233, “Inhibition of BACE1 and Amyloid-β Aggregation by Meroterpenoids from the Mushroom Albatrellus yasudae” (J Nat Prod, 2021).

The target of one test is Beta-secretase 1 (Homo sapiens, UniProt P56817). In words: Inhibition of BACE1 (unknown origin) using Rh-EVNNLDAEFK fluorogenic peptide as substrate incubated for 3 hrs by FRET assay.
Test [1] addresses Amyloid-beta precursor protein (Homo sapiens, UniProt P05067). Nature of the test: Inhibition of self-induced aggregation amyloid beta (1 to 40) (unknown origin) incubated for 24 hrs by Thioflavin T based fluorometric assay.

Amyloid-beta precursor protein, sequence (P05067 whole entry): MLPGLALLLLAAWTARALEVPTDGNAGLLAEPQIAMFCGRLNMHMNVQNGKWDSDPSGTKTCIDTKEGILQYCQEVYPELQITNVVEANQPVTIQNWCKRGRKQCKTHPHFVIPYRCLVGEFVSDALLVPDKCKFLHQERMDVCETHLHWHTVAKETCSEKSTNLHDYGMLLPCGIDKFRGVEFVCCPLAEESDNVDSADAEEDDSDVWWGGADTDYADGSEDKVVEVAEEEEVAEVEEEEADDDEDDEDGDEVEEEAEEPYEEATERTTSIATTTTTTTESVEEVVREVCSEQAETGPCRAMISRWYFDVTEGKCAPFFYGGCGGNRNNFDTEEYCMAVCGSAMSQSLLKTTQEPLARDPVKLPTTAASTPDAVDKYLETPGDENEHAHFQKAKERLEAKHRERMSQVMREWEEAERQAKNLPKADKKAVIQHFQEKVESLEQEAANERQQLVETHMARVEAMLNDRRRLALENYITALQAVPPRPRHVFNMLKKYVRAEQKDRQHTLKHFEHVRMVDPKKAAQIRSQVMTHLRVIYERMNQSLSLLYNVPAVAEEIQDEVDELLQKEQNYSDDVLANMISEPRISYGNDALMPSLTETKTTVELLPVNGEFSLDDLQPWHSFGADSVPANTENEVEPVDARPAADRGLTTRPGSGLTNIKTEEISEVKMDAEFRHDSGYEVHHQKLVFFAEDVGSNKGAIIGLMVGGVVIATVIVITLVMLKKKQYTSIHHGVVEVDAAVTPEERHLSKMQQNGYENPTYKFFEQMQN
Beta-secretase 1, sequence (P56817 whole entry): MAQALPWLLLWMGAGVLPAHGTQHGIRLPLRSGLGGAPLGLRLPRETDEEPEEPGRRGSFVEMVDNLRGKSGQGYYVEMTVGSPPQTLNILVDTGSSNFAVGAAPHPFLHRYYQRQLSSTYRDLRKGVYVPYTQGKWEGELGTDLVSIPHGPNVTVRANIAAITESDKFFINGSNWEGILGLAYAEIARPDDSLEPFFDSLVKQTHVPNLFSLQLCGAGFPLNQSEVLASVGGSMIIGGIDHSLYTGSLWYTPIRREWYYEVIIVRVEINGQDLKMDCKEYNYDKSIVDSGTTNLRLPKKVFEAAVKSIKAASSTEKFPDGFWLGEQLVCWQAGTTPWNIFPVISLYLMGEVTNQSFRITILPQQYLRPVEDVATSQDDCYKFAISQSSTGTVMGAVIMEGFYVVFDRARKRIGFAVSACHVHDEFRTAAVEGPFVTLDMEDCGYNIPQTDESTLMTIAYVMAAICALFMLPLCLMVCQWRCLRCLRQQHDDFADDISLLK

For `COc1c(O)c(O)c(C(=O)O)c(C)c1C/C=C(\C)CC/C=C(\C)CCC=C(C)C`, the IC50 on Beta-secretase 1 turned out to be 1.6 µM; in test [1], 6.6 µM.

On to `C/C(=C\Cc1c(O)cc(C)c(C(=O)O)c1O)CCCC1=C/C(=C\C(C)(C)O)OC1=O`, for which the IC50 worked out at 10.5 µM against Beta-secretase 1 and 51.4 µM in test [1].

In the case of `CC(C)=CCC/C(C)=C/CC/C(C)=C/Cc1c(O)cc(C)cc1O` [GRIFOLIN], the IC50 against Beta-secretase 1 was found to be 6.1 µM.

Consider `COC(=O)c1c(C)cc(O)c(C/C=C(\C)CCCC2=C/C(=C\C(C)(C)O)OC2=O)c1O`, for which the IC50 was determined as 10.9 µM on Beta-secretase 1 and 40.7 µM in test [1].

In the case of `C/C(=C\Cc1c(O)cc(C)c(C(=O)O)c1O)CC/C=C(\C)CC[C@H](O)C(C)(C)O`, the IC50 against Beta-secretase 1 came out at 34.4 µM; in test [1] it was 53.3 µM.

`CC(C)=CCC/C(C)=C/CC/C(C)=C/Cc1c(O)cc(C)c(C(=O)O)c1O` [GRIFOLIC ACID] showed an IC50 against Beta-secretase 1 of 1.4 µM.

As for `COC(=O)c1c(C)c(C/C=C(\C)CC/C=C(\C)CCC=C(C)C)c(OC)c(O)c1O`, the concentration for half-maximal inhibition (IC50) was greater than 100 µM at Beta-secretase 1 and 50.3 µM in test [1].
